For orientation: pEC50 means the EC50 on a negative log10 scale, so that one unit is a factor of ten.

pEC50: −log10 of the molar value.

We go through 34 compounds from patent publication US12049439B2 (OrsoBio, Inc., priority 2018, dated 2024).

For one assay, the system named is PC-3 cells. Kind of assay: PC-3 Oxygen Rate Consumption (OCR) Assay. The format is cell-based. To be noted: Homo sapiens, 0.05 h, medium with 2% FBS, OCR at 3-min post-injection normalized to % increase over DMSO-treated cells, concentration for half-maximal OCR increase, read-out: EC50-PC3-OCR-FBS-3min. The method, boiled down: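 Oxygen consumption read on Seahorse XFe96: three basal measurements, then compound injection and 10 cycles over 30 min. EC50 defined as concentration giving half-maximal OCR rise, using 3-min post-injection values as % above DMSO controls, six replicates per treatment, in PC-3 cells in glucose/pyruvate medium.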
On to `CS(=O)(=O)c1ccc(S(=O)(=O)Nc2ccc(C(F)(F)F)cc2C(=O)NC23CCC(C#N)(CC2)CC3)cc1` [Example 118, N-(4-cyanobicyclo[2.2.2]octan-1-yl)-2-((4-(methylsulfonyl)phenyl)sulfonamido)-5-(trifluoromethyl)benzamide], for which the pEC50 is 4.31.
On the same count and under the same terms, the same measure for `N#CC12CCC(NC(=O)c3cc(C(F)(F)F)ccc3NS(=O)(=O)c3ccc(F)cc3)(CC1)CC2` [Example 119, N-(4-cyanobicyclo[2.2.2]octan-1-yl)-2-((4-fluorophenyl)sulfonamido)-5-(trifluoromethyl)benzamide]: 5.90; for `CCS(=O)(=O)Nc1ccc(C(F)(F)F)cc1C(=O)NC12CCC(C#N)(CC1)CC2` [Example 120, N-(4-cyanobicyclo[2.2.2]octan-1-yl)-2-(ethylsulfonamido)-5-(trifluoromethyl)benzamide]: 5.10; for `COc1ccc(S(=O)(=O)Nc2ccc(C(F)(F)F)cc2C(=O)NC23CCC(C#N)(CC2)CC3)cc1` [Example 121, N-(4-cyanobicyclo[2.2.2]octan-1-yl)-2-((4-methoxyphenyl)sulfonamido)-5-(trifluoromethyl)benzamide]: 5.65.
As to `N#CC12CCC(NC(=O)c3cc(C(F)(F)F)ccc3NS(=O)(=O)c3ccccc3)(CC1)CC2` [Example 122, N-(4-cyanobicyclo[2.2.2]octan-1-yl)-2-(phenylsulfonamido)-5-(trifluoromethyl)benzamide], the pEC50 is 5.82.
On the same count and under the same terms, the same measure for `CC(C)(C)S(=O)(=O)Nc1ccc(C#N)cc1C(=O)NC12CCC(C#N)(CC1)CC2` [Example 123, 5-cyano-N-(4-cyanobicyclo[2.2.2]octan-1-yl)-2-((1,1-dimethylethyl)sulfonamido)benzamide]: 5.32.
Same read-out and setting: as for `N#Cc1ccc(NS(=O)(=O)C2CC2)c(C(=O)NC23CCC(C#N)(CC2)CC3)c1` [Example 124, 5-cyano-N-(4-cyanobicyclo[2.2.2]octan-1-yl)-2-(cyclopropanesulfonamido)benzamide], the figure is 4.10; as for `N#CC12CCC(NC(=O)c3cc(C(F)(F)F)ccc3NS(=O)(=O)C3CC3)(CC1)CC2` [Example 125, N-(4-cyanobicyclo[2.2.2]octan-1-yl)-2-(cyclopropanesulfonamido)-5-(trifluoromethyl)benzamide], 4.91.
The same measure, in the same setting: as for `CCCS(=O)(=O)Nc1ccc(C(F)(F)F)cc1C(=O)NC12CCC(C#N)(CC1)CC2` [Example 126, N-(4-cyanobicyclo[2.2.2]octan-1-yl)-2-(propylsulfonamido)-5-(trifluoromethyl)benzamide], the figure is 5.29.
Turning to `CCCCS(=O)(=O)Nc1ccc(C(F)(F)F)cc1C(=O)NC12CCC(C#N)(CC1)CC2` [Example 127, 2-(butylsulfonamido)-N-(4-cyanobicyclo[2.2.2]octan-1-yl)-5-(trifluoromethyl)benzamide], the negative-log EC50 (pEC50) is 5.62.
Still for that read-out and setting: as for `COCCS(=O)(=O)Nc1ccc(C(F)(F)F)cc1C(=O)NC12CCC(C#N)(CC1)CC2` [Example 128, N-(4-cyanobicyclo[2.2.2]octan-1-yl)-2-((2-methoxyethyl)sulfonamido)-5-(trifluoromethyl)benzamide], the figure is 4.81; as for `CCCCS(=O)(=O)Nc1ccc(C#N)cc1C(=O)NC12CCC(C#N)(CC1)CC2` [Example 129, 2-(butylsulfonamido)-5-cyano-N-(4-cyanobicyclo[2.2.2]octan-1-yl)benzamide], 4.61.
Same read-out and setting: as for `N#CC12CCC(NC(=O)c3cc(C(F)(F)F)ccc3NS(=O)(=O)N3CCCC3)(CC1)CC2` [Example 130, N-(4-cyanobicyclo[2.2.2]octan-1-yl)-2-(pyrrolidine-1-sulfonamido)-5-(trifluoromethyl)benzamide], the figure is 5.33; as for `N#Cc1ccc(NS(=O)(=O)N2CCCC2)c(C(=O)NC23CCC(C#N)(CC2)CC3)c1` [Example 131, 5-cyano-N-(4-cyanobicyclo[2.2.2]octan-1-yl)-2-(pyrrolidine-1-sulfonamido)benzamide], 4.71; as for `N#Cc1ccc(NS(=O)(=O)N2CCC2)c(C(=O)NC23CCC(C#N)(CC2)CC3)c1` [Example 132, 2-(azetidine-1-sulfonamido)-5-cyano-N-(4-cyanobicyclo[2.2.2]octan-1-yl)benzamide], 4.29.
The same measure, in the same setting: the same measure for `CCS(=O)(=O)Nc1cc(C(F)(F)F)ccc1C(=O)NC12CCC(C#N)(CC1)CC2` [Example 133, N-(4-cyanobicyclo[2.2.2]octan-1-yl)-2-(ethylsulfonamido)-4-(trifluoromethyl)benzamide]: 4.83.
With `N#CC12CCC(NC(=O)c3ccc(F)cc3NS(=O)(=O)CCC(F)(F)F)(CC1)CC2` [Example 134, N-(4-cyanobicyclo[2.2.2]octan-1-yl)-4-fluoro-2-((3,3,3-trifluoropropyl)sulfonamido)benzamide], the pEC50 is 5.57.
On the same count and under the same terms, as for `N#CC12CCC(NC(=O)c3ccc(Cl)cc3NS(=O)(=O)CCC(F)(F)F)(CC1)CC2` [Example 135, 4-chloro-N-(4-cyanobicyclo[2.2.2]octan-1-yl)-2-((3,3,3-trifluoropropyl)sulfonamido)benzamide], the figure is 5.79; as for `CS(=O)(=O)Nc1c(F)cccc1C(=O)NC12CC(C(F)(F)F)(C1)C2` [Example 136, 3-fluoro-2-(methylsulfonamido)-N-(3-(trifluoromethyl)bicyclo[1.1.1]pentan-1-yl)benzamide], not above 4.00; as for `CS(=O)(=O)Nc1cc(F)ccc1C(=O)NC12CC(C1)C2` [Example 137, N-(bicyclo[1.1.1]pentan-1-yl)-4-fluoro-2-(methylsulfonamido)benzamide], not above 4.00.
The same measure, in the same setting: the same measure for `CS(=O)(=O)Nc1ccccc1C(=O)NC12CC(C(F)(F)F)(C1)C2` [Example 138, 2-(methylsulfonamido)-N-(3-(trifluoromethyl)bicyclo[1.1.1]pentan-1-yl)benzamide]: not above 4.00; for `CS(=O)(=O)Nc1cc(F)ccc1C(=O)NC12C3C4C5C3C1C5C42` (stereo not shown) [Example 139, N-(cuban-1-yl)-4-fluoro-2-(methylsulfonamido)benzamide]: 4.62; for `CS(=O)(=O)Nc1ccc(F)cc1C(=O)NC12CC(C(F)(F)F)(C1)C2` [Example 140, 5-fluoro-2-(methylsulfonamido)-N-(3-(trifluoromethyl)bicyclo[1.1.1]pentan-1-yl)benzamide]: 4.44.
Still for that read-out and setting: as for `O=C(NC12CC(C(F)(F)F)(C1)C2)c1ccccc1NS(=O)(=O)c1ccc(Cl)cc1Cl` [Example 141, 2-((2,4-dichlorophenyl)sulfonamido)-N-(3-(trifluoromethyl)bicyclo[1.1.1]pentan-1-yl)benzamide], the figure is 5.93.
As to `CS(=O)(=O)Nc1cccc(F)c1C(=O)NC12CC(C(F)(F)F)(C1)C2` [Example 142, 2-fluoro-6-(methylsulfonamido)-N-(3-(trifluoromethyl)bicyclo[1.1.1]pentan-1-yl)benzamide], the pEC50 was not above 4.00.
Same read-out and setting: the same measure for `O=C(NC12CC(C(F)(F)F)(C1)C2)c1ccccc1NS(=O)(=O)CC(F)(F)F` [Example 143, 2-((2,2,2-trifluoroethyl)sulfonamido)-N-(3-(trifluoromethyl)bicyclo[1.1.1]pentan-1-yl)benzamide]: 4.99.
The same measure, in the same setting: as for `O=C(NC12CC(C(F)(F)F)(C1)C2)c1ccccc1NS(=O)(=O)C(F)(F)F` [Example 144, N-(3-(trifluoromethyl)bicyclo[1.1.1]pentan-1-yl)-2-((trifluoromethyl)sulfonamido)benzamide], the figure is 4.73; as for `CS(=O)(=O)Nc1cc(S(F)(F)(F)(F)F)ccc1C(=O)NC12CC(C(F)(F)F)(C1)C2` [Example 146, 2-(methylsulfonamido)-4-(pentafluoro-λ^6-sulfanyl)-N-(3-(trifluoromethyl)bicyclo[1.1.1]pentan-1-yl)benzamide], 6.17.
The same measure, in the same setting: the same measure for `CS(=O)(=O)Nc1cc(C(F)(F)F)ccc1C(=O)NC12CC(C(F)(F)F)(C1)C2` [Example 147, 2-(methylsulfonamido)-4-(trifluoromethyl)-N-(3-(trifluoromethyl)bicyclo[1.1.1]pentan-1-yl)benzamide]: 5.80.
As to `CS(=O)(=O)Nc1cc(C#N)ccc1C(=O)NC12CC(C(F)(F)F)(C1)C2` [Example 148, 4-cyano-2-(methylsulfonamido)-N-(3-(trifluoromethyl)bicyclo[1.1.1]pentan-1-yl)benzamide], the pEC50 is 4.75.
The same measure, in the same setting: the same measure for `O=C(NC12CC(C(F)(F)F)(C1)C2)c1ccc(F)cc1NS(=O)(=O)c1ncccn1` [Example 149, 4-fluoro-2-(pyrimidine-2-sulfonamido)-N-(3-(trifluoromethyl)bicyclo[1.1.1]pentan-1-yl)benzamide]: not above 4.70; for `CS(=O)(=O)c1ccc(NS(=O)(=O)c2ccc(S(F)(F)(F)(F)F)cc2)c(C(=O)NC23CC(C(F)(F)F)(C2)C3)c1` [Example 150, 5-(methylsulfonyl)-2-((4-(pentafluoro-λ^6-sulfanyl)phenyl)sulfonamido)-N-(3-(trifluoromethyl)bicyclo[1.1.1]pentan-1-yl)benzamide]: not above 4.70.
For `[2H]C([2H])([2H])C(c1ccc(S(=O)(=O)Nc2ccc(S(C)(=O)=O)cc2C(=O)NC23CC(C(F)(F)F)(C2)C3)cc1)(C([2H])([2H])[2H])C([2H])([2H])[2H]` [Example 151, 2-((4-(2-(methyl-d3)propan-2-yl-1,1,1,3,3,3-d6)phenyl)sulfonamido)-5-(methylsulfonyl)-N-(3-(trifluoromethyl)bicyclo[1.1.1]pentan-1-yl)benzamide], the pEC50 was 5.03.

The same assay, now with this note: medium with 2% FBS, OCR at 3-min post-injection normalized to % increase over DMSO-treated cells, concentration for half-maximal OCR increase, read-out: EC50-PC3-OCR-FBS-3min.
Consider `CS(=O)(=O)Nc1c(F)cccc1C(=O)NC12CC(C(F)(F)F)(C1)C2` [Example 145, 3-fluoro-2-(methylsulfonamido)-N-(3-(trifluoromethyl)bicyclo[1.1.1]pentan-1-yl)benzamide], for which the pEC50 was not above 4.00.
